From ChEMBL document CHEMBL4371025, “Discovery and evaluation of novel FAAH inhibitors in neuropathic pain model” (Bioorg Med Chem Lett, 2019)
Activity calls are given as the source filed them. The rule behind the calls is not given here.

Assays:
[1] = biological target: T1, Fatty-acid amide hydrolase 1 (Rattus norvegicus) (UniProt P97612); assay: Inhibition of rat FFAH expressed in Escherichia coli at 10 uM using AAMCA as substrate incubated for 1 min measured for 50 mins by fluorescence assay relative to control
T1 sequence (whole entry): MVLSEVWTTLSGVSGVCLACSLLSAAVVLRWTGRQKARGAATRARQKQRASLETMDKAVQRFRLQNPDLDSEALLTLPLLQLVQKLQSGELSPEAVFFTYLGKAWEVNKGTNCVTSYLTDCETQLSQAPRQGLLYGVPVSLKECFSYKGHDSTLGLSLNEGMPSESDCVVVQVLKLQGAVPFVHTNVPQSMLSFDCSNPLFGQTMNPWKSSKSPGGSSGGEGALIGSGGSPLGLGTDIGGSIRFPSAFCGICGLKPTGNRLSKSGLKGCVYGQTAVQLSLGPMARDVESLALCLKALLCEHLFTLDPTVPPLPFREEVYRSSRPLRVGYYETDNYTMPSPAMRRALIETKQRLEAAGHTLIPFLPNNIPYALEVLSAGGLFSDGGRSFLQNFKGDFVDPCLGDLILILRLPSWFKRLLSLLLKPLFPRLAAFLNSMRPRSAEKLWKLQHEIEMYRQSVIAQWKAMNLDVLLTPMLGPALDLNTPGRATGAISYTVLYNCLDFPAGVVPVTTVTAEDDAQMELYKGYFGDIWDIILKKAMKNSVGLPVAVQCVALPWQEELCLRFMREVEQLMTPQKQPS

[2] = Intrinsic metabolic stability in human liver microsomes assessed as metabolic turnover rate per mg protein at 1 uM preincubated for 5 mins followed by NADPH cofactor addition and measured after 30 mins by LC-MS/MS analysis; format: ADME, Microsome; conditions: 0.5 h
[3] = Intrinsic metabolic stability in rat liver microsomes assessed as metabolic turnover over per mg protein at 1 uM preincubated for 5 mins followed by NADPH cofactor addition and measured after 30 mins by LC-MS/MS analysis; format: ADME, Microsome; conditions: 0.5 h
[4] = biological target: T2, Fatty-acid amide hydrolase 1 (Homo sapiens, UniProt O00519); assay: Inhibition of human transmembrane domain deficient FFAH expressed in Escherichia coli using AAMCA as substrate incubated for 1 min measured for 50 mins by fluorescence assay
T2 sequence (O00519 whole entry): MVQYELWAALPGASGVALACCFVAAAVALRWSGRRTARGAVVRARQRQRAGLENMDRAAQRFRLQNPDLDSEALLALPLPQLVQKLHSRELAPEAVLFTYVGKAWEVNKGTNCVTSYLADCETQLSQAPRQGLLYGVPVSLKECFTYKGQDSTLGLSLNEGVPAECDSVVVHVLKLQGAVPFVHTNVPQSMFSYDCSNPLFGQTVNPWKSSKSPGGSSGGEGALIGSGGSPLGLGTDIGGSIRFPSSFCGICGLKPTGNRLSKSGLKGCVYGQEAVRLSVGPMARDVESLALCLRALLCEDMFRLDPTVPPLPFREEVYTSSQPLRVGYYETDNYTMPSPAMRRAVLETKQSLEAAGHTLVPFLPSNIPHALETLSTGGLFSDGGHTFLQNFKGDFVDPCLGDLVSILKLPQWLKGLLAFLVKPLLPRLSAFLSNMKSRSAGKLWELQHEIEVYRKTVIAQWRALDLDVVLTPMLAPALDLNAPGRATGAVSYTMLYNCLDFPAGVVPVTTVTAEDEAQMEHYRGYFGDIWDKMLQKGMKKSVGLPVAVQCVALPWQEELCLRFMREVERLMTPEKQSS

[5] = biological target: T3, Fatty-acid amide hydrolase 1 (Rattus norvegicus, UniProt P97612); assay: Inhibition of rat FFAH expressed in Escherichia coli using AAMCA as substrate incubated for 1 min measured for 50 mins by fluorescence assay
T3 sequence (P97612 whole entry): T1 sequence (whole entry)

[6] = AUC (0 to 48 hrs) in Sprague-Dawley rat at 1 mg/kg, iv administered as single dose by LC-MS/MS analysis; format: ADME, organism-based; design: dose 1 mg/kg, time < 48 hr, route intravenous; conditions: in vivo
[7] = Volume of distribution at steady state in Sprague-Dawley rat at 1 mg/kg, iv administered as single dose by LC-MS/MS analysis; format: ADME, organism-based; conditions: in vivo, read-out: Vdss
[8] = Clearance in Sprague-Dawley rat at 1 mg/kg, iv administered as single dose by LC-MS/MS analysis; format: ADME, organism-based; conditions: in vivo
[9] = Elimination half life in Sprague-Dawley rat at 1 mg/kg, iv administered as single dose by LC-MS/MS analysis; format: ADME, organism-based; conditions: in vivo, read-out: beta t1/2 (converted)
[10] = Cmax in Sprague-Dawley rat at 10 mg/kg, po administered as single dose via gavage by LC-MS/MS analysis; format: ADME, organism-based; design: dose 10 mg/kg, route oral; conditions: in vivo
[11] = AUC (0 to 48 hrs) in plasma of Sprague-Dawley rat at 10 mg/kg, po administered as single dose via gavage by LC-MS/MS analysis; format: ADME, organism-based; design: time < 48 hr, dose 10 mg/kg, route oral
[12] = Oral bioavailability in Sprague-Dawley rat at 10 mg/kg administered as single dose via gavage by LC-MS/MS analysis; format: ADME, organism-based; conditions: in vivo
Rattus norvegicus [13] = assay: Antihyperalgesic activity in Sprague-Dawley rat model of cisplatin-induced peripheral neuropathy assessed as increase in paw withdrawal latency at 10 mg/kg, po administered once daily via gavage for 7 days measured 4 hrs post last dose by plantar test; format: functional, organism-based
[14] = biological target: T4, Fatty-acid amide hydrolase 1 (Homo sapiens) (UniProt O00519); assay: Reversible inhibition of human transmembrane domain deficient FFAH expressed in Escherichia coli assessed as residual activity at 10 times IC50 using AAMCA as substrate preincubated for 1 hr followed by substrate addition and subsequent 10 fold compound dilution by fluorescence assay relative to control
T4 sequence (whole entry): T2 sequence (O00519 whole entry)

[15] = biological target: T4, Fatty-acid amide hydrolase 1 (Homo sapiens); assay: Reversible inhibition of human transmembrane domain deficient FFAH expressed in Escherichia coli assessed as residual activity at 10 times IC50 using AAMCA as substrate preincubated for 1 hr followed by substrate addition by fluorescence assay relative to control
[16] = biological target: T4, Fatty-acid amide hydrolase 1 (Homo sapiens); assay: Substrate activity at human transmembrane domain deficient FFAH expressed in Escherichia coli assessed as parent compound remaining at 2 times IC50 after 15 mins by MS analysis
[17] = biological target: T4, Fatty-acid amide hydrolase 1 (Homo sapiens); assay: Substrate activity at human transmembrane domain deficient FFAH expressed in Escherichia coli assessed as parent compound remaining at 2 times IC50 after 30 mins by MS analysis
[18] = biological target: T4, Fatty-acid amide hydrolase 1 (Homo sapiens); assay: Substrate activity at human transmembrane domain deficient FFAH expressed in Escherichia coli assessed as parent compound remaining at 2 times IC50 after 60 mins by MS analysis
[19] = biological target: T4, Fatty-acid amide hydrolase 1 (Homo sapiens); assay: Substrate activity at human transmembrane domain deficient FFAH expressed in Escherichia coli assessed as parent compound remaining at 2 times IC50 measured immediately by MS analysis
[20] = biological target: T1, Fatty-acid amide hydrolase 1 (Rattus norvegicus); assay: Inhibition of rat FFAH expressed in Escherichia coli at 100 nM using AAMCA as substrate incubated for 1 min measured for 50 mins by fluorescence assay relative to control
Rattus norvegicus [21] = assay: Antihyperalgesic activity in Sprague-Dawley rat model of cisplatin-induced peripheral neuropathy assessed as increase in paw withdrawal latency at 30 mg/kg, po administered as single dose via gavage measured 4 hrs post dose by plantar test; format: functional, organism-based
Rattus norvegicus [22] = assay: Antihyperalgesic activity in Sprague-Dawley rat model of cisplatin-induced peripheral neuropathy assessed as increase in paw withdrawal latency at 30 mg/kg, po administered once daily via gavage for 6 days measured 24 hrs post last dose by plantar test; format: functional, organism-based
Rattus norvegicus [23] = assay: Antihyperalgesic activity in Sprague-Dawley rat model of cisplatin-induced peripheral neuropathy assessed as increase in paw withdrawal latency at 3 mg/kg, po administered as single dose via gavage measured 4 hrs post dose by plantar test; format: functional, organism-based
Rattus norvegicus [24] = assay: Antihyperalgesic activity in Sprague-Dawley rat model of cisplatin-induced peripheral neuropathy assessed as increase in paw withdrawal latency at 30 mg/kg, po administered once daily via gavage for 7 days measured 4 hrs post last dose by plantar test; format: functional, organism-based
Rattus norvegicus [25] = assay: Antihyperalgesic activity in Sprague-Dawley rat model of cisplatin-induced peripheral neuropathy assessed as increase in paw withdrawal latency at 40 mg/kg, po administered once daily via gavage for 7 days measured 4 hrs post last dose by plantar test; format: functional, organism-based

Row | Compound | Drug metabolism [2] [nmol/min/mg] | Drug metabolism [3] [nmol/min/mg] | IC50 [4] [nM] | IC50 [5] [nM] | other results
1 | O=C(NC1CCC(=Cc2cccc(Oc3ccc(C(F)(F)F)cn3)c2)CC1)c1cccnc1 (centres undefined) | – | – | – | – | inhibition [1]: 60%
2 | Cc1cc(C(=O)NC2CCC(=Cc3cccc(Oc4ccc(C(F)(F)F)cn4)c3)CC2)cnc1N (racemic) | 0.09 | 0.04 | – | – | –
3 | O=C(NC1CCC(=Cc2cccc(Oc3ccc(C(F)(F)F)cn3)c2)CC1)c1cccnn1 (racemic) | – | – | 9 | – | –
4 | O=C(NC1CCC(=Cc2cccc(Oc3ccc(C(F)(F)F)cn3)c2)CC1)c1ccc(-n2cccn2)nc1 (racemic) | 0.11 | 0.09 | 6.7 | 6.6 | AUC(0-t) at 48 h [6]: 8 µM·h; Vd [7]: 4.6 L/kg; clearance [8]: 2.4 mL/min/kg; half-life [9]: > 10 h; Cmax [10]: 90 nM; AUC(0-t) at 48 h [11]: 0.9 µM·h; bioavailability [12]: 1.2%
5 | O=C(Nc1cccnn1)N1CCC(=Cc2cccc(Oc3ccc(C(F)(F)F)cn3)c2)CC1 | – | – | 1.8 | 5.7 | Activity (Rattus norvegicus [13]): Active
6 | O=C(Nc1cccnc1)N1CCC(Cc2cccc(Oc3ccc(C(F)(F)F)cn3)c2)CC1 | – | – | 2.6 | 11.5 | Activity [14]: inactive; Activity [15]: 20%; Activity [16]: 77.2%; Activity [17]: 54.4%; Activity [18]: 40.4%; Activity [19]: 100%
7 | Nc1ncc(C(=O)NC2CCC(=Cc3cccc(Oc4ccc(C(F)(F)F)cn4)c3)CC2)cn1 (racemic) | 0.03 | 0.02 | 2 | – | –
8 | O=C(CCCCCCc1ccccc1)c1ncc(-c2ccccn2)o1 | – | – | – | – | Activity [14]: 30%
9 | O=C(NC1CCC(=Cc2cccc(Oc3ccc(C(F)(F)F)cn3)c2)CC1)c1ccncc1 (racemic) | – | – | – | – | inhibition [20]: 15%
10 | Nc1ccc(C(=O)NC2CCC(=Cc3cccc(Oc4ccc(C(F)(F)F)cn4)c3)CC2)cn1 (centres undefined) | – | – | – | – | inhibition [1]: 70%
11 | Nc1ccc(C(=O)NC2CCC(=Cc3cccc(Oc4ccc(C(F)(F)F)cn4)c3)CC2)cn1 (racemic) | 0.07 | 0.05 | – | 31.3 | –
12 | O=C(NC1CCC(=Cc2cccc(Oc3ccc(C(F)(F)F)cn3)c2)CC1)c1cn[nH]c1 (racemic) | 0.04 | < 0.04 | – | 64.6 | –
13 | Nc1ccc(C(=O)N[C@H]2CC/C(=C/c3cccc(Oc4ccc(C(F)(F)F)cn4)c3)CC2)cn1 (centres undefined) | – | – | 450 | – | –
14 | Cc1cc(C(=O)NC2CCC(=Cc3cccc(Oc4ccc(C(F)(F)F)cn4)c3)CC2)cnc1N (centres undefined) | – | – | – | – | Activity (Rattus norvegicus [21]): Active; Activity (Rattus norvegicus [22]): Active; Activity (Rattus norvegicus [23]): inactive; Activity (Rattus norvegicus [24]): Active
15 | Cc1cc(C(=O)N[C@H]2CC/C(=C/c3cccc(Oc4ccc(C(F)(F)F)cn4)c3)CC2)cnc1N (centres undefined) | – | – | 227 | 2300 | –
16 | Nc1ncc(C(=O)NC2CCC(=Cc3cccc(Oc4ccc(C(F)(F)F)cn4)c3)CC2)cn1 (centres undefined) | – | – | – | – | Activity (Rattus norvegicus [21]): Active; Activity (Rattus norvegicus [22]): Active; Activity (Rattus norvegicus [23]): inactive; Activity (Rattus norvegicus [24]): Active
17 | COc1cccc([C@@]2(O)CCCC[C@@H]2CN(C)C)c1 | – | – | – | – | Activity (Rattus norvegicus [25]): Active
18 | O=C(NC1CCC(=Cc2cccc(Oc3ccc(C(F)(F)F)cn3)c2)CC1)c1ccc(Cl)nc1 (racemic) | 0.06 | 0.04 | 5.1 | 80.7 | –
19 | O=C(NC1CCC(=Cc2cccc(Oc3ccc(C(F)(F)F)cn3)c2)CC1)c1cc[nH]n1 (racemic) | – | – | – | 266 | –
20 | O=C(NC1CCC(=Cc2cccc(Oc3ccc(C(F)(F)F)cn3)c2)CC1)c1cncnc1 (racemic) | < 0.04 | 0.07 | – | – | –
21 | Nc1ncc(C(=O)NC2CCC(=Cc3cccc(Oc4ccc(C(F)(F)F)cn4)c3)CC2)cc1Cl (racemic) | 0.06 | < 0.04 | 4 | 52 | –
22 | O=C(N[C@H]1CC/C(=C/c2cccc(Oc3ccc(C(F)(F)F)cn3)c2)CC1)c1cccnc1 (centres undefined) | – | – | 414 | – | –
23 | Nc1ncc(C(=O)N[C@H]2CC/C(=C/c3cccc(Oc4ccc(C(F)(F)F)cn4)c3)CC2)cn1 (centres undefined) | – | – | 83 | 1500 | –
24 | O=C(NC1CCC(=Cc2cccc(Oc3ccc(C(F)(F)F)cn3)c2)CC1)c1ccc(-n2nccn2)nc1 (racemic) | 0.09 | 0.04 | – | – | –
25 | O=C(NC1CCC(=Cc2cccc(Oc3ccc(C(F)(F)F)cn3)c2)CC1)c1cccnc1 (racemic) | 0.06 | 0.06 | 2.2 | – | –
